From patent US12162876B2, “Indazole kinase inhibitor and use thereof” (Tarapeutics Science Inc., priority 2018, dated 2024)
Where two headings read alike, the source gives them in different places.

Legend:
GIST-T1-T670I [1] = assay: Cell proliferation (CCK-8, 72 h), GIST-T1-T670I; type: cell-based; conditions: Homo sapiens, GIST-T1-T670I (C-KIT-T670I mutant, Imatinib-resistant)
Excerpt: (§1) In this example, human gastrointestinal stromal tumor cell line GIST-T1 (expressing wild-type C-KIT gene) (purchased from Cosmo Bio Co., Ltd. (Japan)), human gastrointestinal stromal tumor cell line GIST-T1-T670I (expressing C-KIT-T670I mutant gene) (constructed by our laboratory with CRISPR technology), mouse […] BaF3 (purchased from ATCC) were used. In addition, in this Example, mouse Tel-cKit-BaF3 (stably expressing C-KIT wild-type kinase), mouse Tel-cKit/T670I-BaF3 (stably expressing cKIT T670I mutant kinase), mouse Tel-PDGFRα-BaF3 (stably expressing PDGFRα kinase), mouse Tel-PDGFRβ-BaF3 (stably expressing PDGFRβ kinase), mouse Tel-VEGFR2-BaF3 (stably expressing VEGFR2 kinase), mouse Tel-FLT3-BaF3 (stably expressing FLT3 kinase) were also used. The above cell lines were all constructed by our laboratory. The construction method was as follows: the human C-KIT, C-KIT T670I, PDGFRα, PDGFRβ, VEGFR2, FLT3 kinase region sequences were amplified by PCR respectively and inserted into MSCV-Puro vector (purchased from Clontech) with N-terminal TEL fragment and/or NPM fragment and/or TPR fragment respectively, which was stably transferred into mouse BaF3 cells by retroviral method, and IL-3 growth factor was removed, and finally the cell lines in which protein was transferred depending on C-KIT, C-KIT/T670I, PDGFRα, PDGFRβ, VEGFR2, FLT3 were obtained. The GIST-T1-T670I (expressing C-KIT-T670I mutant gene) cell line was constructed by our laboratory. The construction method was as follows: the sgRNA targeting near the T670 site of the KIT gene was designed by the CRISPR design tool of the Zhang Feng Laboratory of the Massachusetts Institute of Technology (URL: crispr.mit.edu) and cloned into pSpCas9(BB)-2A-Puro vector (Addgene, USA); the obtained vector and a single-stranded oligonucleotide with T670I mutation near the T670 site were co-transfected into the cells, and after antibiotic selection, they were diluted and cultured in a single cell in a 96-well plate; the T670 site of the cells was sequenced and verified by the Sanger sequencing method.

GIST-T1 = assay: Cell proliferation (CCK-8, 72 h), GIST-T1; type: cell-based; conditions: Homo sapiens, GISTT1, GIST-T1 (wild-type C-KIT gene)
Excerpt: as §1

BaF3 = assay: Cell proliferation (CCK-8, 72 h), parental BaF3; type: cell-based; conditions: Mus musculus, parental BaF3 cells
Excerpt: as §1

TEL-cKIT/T670I-BaF3 [2] = assay: Cell proliferation (CCK-8, 72 h), TEL-cKIT/T670I-BaF3; type: cell-based; conditions: Mus musculus, read-out: GI50 TEL-cKIT/T670I-BaF3
Excerpt: as §1

TEL-FLT3-BaF3 = assay: Cell proliferation (CCK-8, 72 h), TEL-FLT3-BaF3; type: cell-based; conditions: Mus musculus, BaF3 expressing FLT3 kinase
Excerpt: as §1

TEL-PDGFRα-BaF3 = assay: Cell proliferation (CCK-8, 72 h), TEL-PDGFRα-BaF3; type: cell-based; conditions: Mus musculus, BaF3 expressing PDGFRα kinase
Excerpt: as §1

TEL-cKIT-BaF3 = assay: Cell proliferation (CCK-8, 72 h), TEL-cKIT-BaF3; type: cell-based; conditions: Mus musculus, BaF3 expressing wild-type C-KIT kinase
Excerpt: as §1

TEL-VEGFR2-BaF3 = assay: Cell proliferation (CCK-8, 72 h), TEL-VEGFR2-BaF3; type: cell-based; conditions: Mus musculus, BaF3 expressing VEGFR2 kinase
Excerpt: as §1

GIST-T1-T670I [3] = assay: GIST-T1-T670I cell tumor transplantation mouse model; type: in vivo; conditions: for tumor inhibition rate: 40 mg/kg oral daily
Method: (§2) (1) 4-6 weeks old Bal b/c female mice were purchased from Beijing Weitong Lihua Experimental Animal Co., Ltd. and were reared in SPF-level laboratories. Drinking water and litter were sterilized by autoclaving. All operations on mice were performed under sterile conditions.
(§3) (2) On day 0, about 5×10^6 TEL-cKIT/T670I-BaF3 or 5×10^6 GIST-T1-T670I cells were injected subcutaneously on the left back of all mice, respectively.
(§4) (3) For the mouse model of TEL-cKIT/T670I-BaF3, starting from day 6, the corresponding mice were orally administered every day methyl cellulose (HKI) vehicle (5 mice); […]; sunitinib (purchased from MedChemExpress, China) at a dose of 40 mg/kg mouse weight (5 mice). For the mouse model of GIST-T1-T670I, starting from day 15, the corresponding mice were orally administered every day methyl cellulose (HKI) vehicle (5 mice); Compound 9 at a dose of 20 mg/kg, 30 mg/kg, 40 mg/kg (5 mice each); sunitinib at a dose of 40 mg/kg mouse weight (5 mice).
(§5) (4) Starting from day 6 (the mouse model of TEL-cKIT/T670I-BaF3) and day 15 (the mouse model of GIST-T1-T670I), the length/width of the subcutaneous tumors was measured with a vernier caliper every day, the body weight of the mice was recorded every day, and the effect of compound 9 on the body weight of the mice was determined respectively.
(§6) (5) The growth trend of […] tumors was calculated, with the calculation method of tumor volume: length×width×width/2 mm^3.

TEL-cKIT/T670I-BaF3 [4] = assay: TEL-cKIT/T670I-BaF3 cell tumor transplantation mouse model; type: in vivo
Method: as §2, §3, §4, §5, §6

TEL-PDGFRβ-BaF3 = assay: Cell proliferation (CCK-8, 72 h), TEL-PDGFRβ-BaF3; type: cell-based; conditions: Mus musculus, BaF3 expressing PDGFRβ kinase
Excerpt: as §1

[5] = BaF3 expressing cKIT T670I mutant kinase, 72 h, CCK-8

Compound | GI50 (TEL-cKIT/T670I-BaF3 [2]; [5]) [nM] | GI50 (TEL-FLT3-BaF3) [nM] | GI50 (TEL-PDGFRα-BaF3) [nM] | GI50 (TEL-cKIT-BaF3) [nM] | GI50 (TEL-VEGFR2-BaF3) [nM] | GI50 (TEL-PDGFRβ-BaF3) [nM] | GI50 (GIST-T1-T670I [1]) [nM] | GI50 (GIST-T1) [nM] | GI50 (BaF3) [nM] | tumor inhibition rate (GIST-T1-T670I [3]; day 28 after administration) [%] | tumor inhibition rate (GIST-T1-T670I [3]; with increasing days of treatment) [%] | effect on the body weight of mice (GIST-T1-T670I [3]; oral daily) | tumor inhibition rate (TEL-cKIT/T670I-BaF3 [4]; 40 mg/kg oral daily, with increasing days of treatment) [%] | tumor inhibition rate (TEL-cKIT/T670I-BaF3 [4]; 100 mg/kg oral daily, day 11 after administration) [%] | effect on the body weight of mice (TEL-cKIT/T670I-BaF3 [4]; oral daily) | GI50 (TEL-cKIT/T670I-BaF3 [2]; BaF3, 72 h) [nM]
Cc1ccc(NC(=O)c2ccc(CN3CCN(C)CC3)cc2)cc1Nc1nccc(-c2cccnc2)n1 [Imaitnib, Imatinib, reference compound] |  |  |  |  |  |  | > 10000 | 10 |  |  |  |  |  |  |  | 
Cc1nc(NC(=O)CN2CCN(C)CC2)sc1-c1ccc2c(/C=C/c3ccccn3)n[nH]c2c1 [Compound 9, (E)-N-(4-methyl-5-(3-(2-(pyridin-2-yl)vinyl)-1H-indazol-6-yl)thiazol-2-yl)-2-(4-methylpiperazin-1-yl)acetamide] |  | 1 |  | 923 | 180 |  | 39 | 19 | 1400 | 84.3 | ≤ 80 | no effect | ≤ 80 | 100 | no effect | 9
CC(=O)Nc1nc(C)c(-c2ccc3c(/C=C/c4ccccn4)n[nH]c3c2)s1 [Compound 30, (E)-N-(4-methyl-5-(3-(2-(pyridin-2-yl)vinyl)-1H-indazol-6-yl)thiazol-2-yl) acetamide] | 8 | 0.3 | 1 | 47 | 12 | 1 |  |  | 1460 |  |  |  |  |  |  | 
Cc1nc(NC(=O)C2CCNCC2)sc1-c1ccc2c(/C=C/c3ccccn3)n[nH]c2c1 [Compound 14, (E)-N-(4-methyl-5-(3-(2-(pyridin-2-yl)vinyl)-1H-indazol-6-yl)thiazol-2-yl) piperidin-4-carboxamide] | 85 | 1.6 | 7.4 | 137 | 42 | 18 |  |  | 3100 |  |  |  |  |  |  | 
CC(=O)Nc1ncc(-c2ccc3c(/C=C/c4ccccn4)n[nH]c3c2)s1 [Compound 5, (E)-N-(5-(3-(2-(pyridin-2-yl)vinyl)-1H-indazol-6-yl)thiazol-2-yl)acetamide] | 9 | < 1 | 2 | 425 | 38 | 11 |  |  | 2920 |  |  |  |  |  |  | 

Further compounds by falling GI50 (TEL-cKIT/T670I-BaF3 [2]; [5]), results first:

GI50 (TEL-cKIT/T670I-BaF3 [2]; [5]) [nM] | GI50 (TEL-FLT3-BaF3) [nM] | GI50 (TEL-PDGFRα-BaF3) [nM] | GI50 (TEL-cKIT-BaF3) [nM] | GI50 (TEL-VEGFR2-BaF3) [nM] | GI50 (TEL-PDGFRβ-BaF3) [nM] | Compound | GI50 (GIST-T1-T670I [1]) [nM] | GI50 (GIST-T1) [nM] | GI50 (BaF3) [nM] | tumor inhibition rate (GIST-T1-T670I [3]; day 28 after administration) [%] | tumor inhibition rate (GIST-T1-T670I [3]; with increasing days of treatment) [%] | effect on the body weight of mice (GIST-T1-T670I [3]; oral daily) | tumor inhibition rate (TEL-cKIT/T670I-BaF3 [4]; 40 mg/kg oral daily, with increasing days of treatment) [%] | tumor inhibition rate (TEL-cKIT/T670I-BaF3 [4]; 100 mg/kg oral daily, day 11 after administration) [%] | effect on the body weight of mice (TEL-cKIT/T670I-BaF3 [4]; oral daily) | GI50 (TEL-cKIT/T670I-BaF3 [2]; BaF3, 72 h) [nM]
94 | 3 | 2.9 | 191 | 15 |  | Cc1nc(NC(=O)Cc2cccc3ccccc23)sc1-c1ccc2c(/C=C/c3ccccn3)n[nH]c2c1 [Compound 7, (E)-N-(4-methyl-5-(3-(2-(pyridin-2-yl)vinyl)-1H-indazol-6-yl)thiazol-2-yl)-2-(naphthalene-1-yl)acetamide] | 65 | 32 | 3690 |  |  |  |  |  |  | 
38 | 2 | < 1 | 25 | 4 | < 1 | Cc1nc(NC(=O)Nc2cccc(C(F)(F)F)c2)sc1-c1ccc2c(/C=C/c3ccccn3)n[nH]c2c1 [Compound 29, (E)-1-(4-methyl-5-(3-(2-(pyridin-2-yl)vinyl)-1H-indazol-6-yl)thiazol-2-yl)-3-(3-(trifluoromethyl)phenyl)urea] |  |  | 105 |  |  |  |  |  |  | 
38 | 48 | 1.3 | 480 | 350 | 3.9 | Cc1nc(NC(=O)CC2CCNCC2)sc1-c1ccc2c(/C=C/c3ccccn3)n[nH]c2c1 [Compound 11, (E)-N-(4-methyl-5-(3-(2-(pyridin-2-yl)vinyl)-1H-indazol-6-yl)thiazol-2-yl)-2-(piperidin-4-yl)acetamide] |  |  | 980 |  |  |  |  |  |  | 
12 | 2 | 1 | 24 | 5 | 3 | Cc1nc(NC(=O)c2cccc(C(F)(F)F)c2)sc1-c1ccc2c(/C=C/c3ccccn3)n[nH]c2c1 [Compound 6, (E)-N-(4-methyl-5-(3-(2-(pyridin-2-yl)vinyl)-1H-indazol-6-yl)thiazol-2-yl)-3-(trifluoromethyl)benzamide] |  |  | > 10000 |  |  |  |  |  |  | 
6 | 4 | 2 | 1550 | 7 | 1 | Cc1nc(NC(=O)c2ccncc2)sc1-c1ccc2c(/C=C/c3ccccn3)n[nH]c2c1 [Compound 4, (E)-N-(4-methyl-5-(3-(2-(pyridin-2-yl)vinyl)-1H-indazol-6-yl)thiazol-2-yl) isonicotinamide] |  |  | > 10000 |  |  |  |  |  |  | 
3 | < 1 | 1 | 24 | 16 | 3 | Cc1nc(NC(=O)c2ccc(CN3CCN(C)CC3)cc2)sc1-c1ccc2c(/C=C/c3ccccn3)n[nH]c2c1 [Compound 1, (E)-N-(4-methyl-5-(3-(2-(pyridin-2-yl)vinyl)-1H-indazol-6-yl)thiazol-2-yl)-4-((4-methylpiperazin-1-yl)methyl)benzamide] |  |  | 58 |  |  |  |  |  |  | 
